Results: PubChem BioAssay (NCI)
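How tested: cells in 96-well plates exposed to compound for 48 hours at five concentrations. Here, GI50 denotes the concentration required for 50% inhibition of growth. TGI: total growth inhibition.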

Assays:
Test in all cases: NCI-60 cell line screen, 48 h
OVCAR-5 ovarian = tested on: OVCAR-5 ovarian
NCI-H23 lung = tested on: NCI-H23 lung
SF-268 CNS = tested on: SF-268 CNS
M14 melanoma = tested on: M14 melanoma
DU-145 prostate = tested on: DU-145 prostate
CCRF-CEM leukemia = tested on: CCRF-CEM leukemia
KM12 colon = tested on: KM12 colon
HOP-92 NSCLC = tested on: HOP-92 NSCLC
K-562 leukemia = tested on: K-562 leukemia
A549 NSCLC = tested on: A549 NSCLC
MDA-MB-435 = tested on: MDA-MB-435
OVCAR-4 ovarian = tested on: OVCAR-4 ovarian
CAKI-1 renal = tested on: CAKI-1 renal
SN12C renal = tested on: SN12C renal
SR leukemia = tested on: SR leukemia
T-47D breast = tested on: T-47D breast
A498 renal = tested on: A498 renal
PC-3 prostate = tested on: PC-3 prostate
SNB-19 CNS = tested on: SNB-19 CNS
SK-MEL-2 melanoma = tested on: SK-MEL-2 melanoma
EKVX NSCLC = tested on: EKVX NSCLC
TK-10 renal = tested on: TK-10 renal
786-0 renal = tested on: 786-0 renal
COLO 205 colon = tested on: COLO 205 colon
HCT-15 colon = tested on: HCT-15 colon
SW-620 colon = tested on: SW-620 colon
HCC-2998 colon = tested on: HCC-2998 colon
UO-31 renal = tested on: UO-31 renal
RXF 393 renal = tested on: RXF 393 renal
MDA-MB-231 breast = tested on: MDA-MB-231 breast
SF-539 CNS = tested on: SF-539 CNS
SNB-75 CNS = tested on: SNB-75 CNS
RPMI-8226 leukemia = tested on: RPMI-8226 leukemia
IGROV1 ovarian = tested on: IGROV1 ovarian
HL-60(TB) leukemia = tested on: HL-60(TB) leukemia
NCI-H522 lung = tested on: NCI-H522 lung
UACC-62 melanoma = tested on: UACC-62 melanoma
HOP-62 NSCLC = tested on: HOP-62 NSCLC
SK-OV-3 ovarian = tested on: SK-OV-3 ovarian
MALME-3M melanoma = tested on: MALME-3M melanoma
OVCAR-3 ovarian = tested on: OVCAR-3 ovarian
NCI-H460 lung = tested on: NCI-H460 lung
NCI/ADR-RES ovarian = tested on: NCI/ADR-RES ovarian
U251 CNS = tested on: U251 CNS
SK-MEL-5 melanoma = tested on: SK-MEL-5 melanoma
BT-549 breast = tested on: BT-549 breast
LOX IMVI melanoma = tested on: LOX IMVI melanoma
ACHN renal = tested on: ACHN renal
MCF7 breast = tested on: MCF7 breast
HS 578T breast = tested on: HS 578T breast
HCT-116 colon = tested on: HCT-116 colon
MOLT-4 leukemia = tested on: MOLT-4 leukemia
UACC-257 melanoma = tested on: UACC-257 melanoma
HT29 colon = tested on: HT29 colon
SF-295 CNS = tested on: SF-295 CNS
SK-MEL-28 melanoma = tested on: SK-MEL-28 melanoma
OVCAR-8 ovarian = tested on: OVCAR-8 ovarian
NCI-H226 lung = tested on: NCI-H226 lung

Nc1nc2c(c3cnccc13)C(c1cccc(Br)c1)Cc1cnccc1-2 (stereo unspecified)
GI50 (OVCAR-5 ovarian): 875 nM | TGI (OVCAR-5 ovarian): 21800 nM | GI50 (NCI-H23 lung): 635 nM | TGI (NCI-H23 lung): 14100 nM | GI50 (SF-268 CNS): 852 nM | TGI (SF-268 CNS): 18300 nM | GI50 (M14 melanoma): 215 nM | TGI (M14 melanoma): 615 nM | GI50 (DU-145 prostate): 344 nM | TGI (DU-145 prostate): 11300 nM | GI50 (CCRF-CEM leukemia): 373 nM | TGI (CCRF-CEM leukemia): 14100 nM | GI50 (KM12 colon): 436 nM | TGI (KM12 colon): 13600 nM | GI50 (HOP-92 NSCLC): 639 nM | TGI (HOP-92 NSCLC): 16700 nM | GI50 (K-562 leukemia): 346 nM | TGI (K-562 leukemia): 17400 nM | GI50 (A549 NSCLC): 627 nM | TGI (A549 NSCLC): 13600 nM | GI50 (MDA-MB-435): 154 nM | TGI (MDA-MB-435): 571 nM | GI50 (OVCAR-4 ovarian): 1730 nM | TGI (OVCAR-4 ovarian): 34100 nM | GI50 (CAKI-1 renal): 422 nM | TGI (CAKI-1 renal): 14400 nM | GI50 (SN12C renal): 877 nM | TGI (SN12C renal): 22900 nM | GI50 (SR leukemia): 243 nM | TGI (SR leukemia): > 100000 nM | GI50 (T-47D breast): 411 nM | TGI (T-47D breast): 40400 nM | GI50 (A498 renal): 233 nM | TGI (A498 renal): 824 nM | GI50 (PC-3 prostate): 460 nM | TGI (PC-3 prostate): 14000 nM | GI50 (SNB-19 CNS): 410 nM | TGI (SNB-19 CNS): 15200 nM | GI50 (SK-MEL-2 melanoma): 303 nM | TGI (SK-MEL-2 melanoma): 1910 nM | GI50 (EKVX NSCLC): 487 nM | TGI (EKVX NSCLC): 21500 nM | GI50 (TK-10 renal): 613 nM | TGI (TK-10 renal): 13600 nM | GI50 (786-0 renal): 482 nM | TGI (786-0 renal): 12600 nM | GI50 (COLO 205 colon): 273 nM | TGI (COLO 205 colon): 1070 nM | GI50 (HCT-15 colon): 362 nM | TGI (HCT-15 colon): 10500 nM | GI50 (SW-620 colon): 420 nM | TGI (SW-620 colon): 17400 nM | GI50 (HCC-2998 colon): 3620 nM | TGI (HCC-2998 colon): 18800 nM | GI50 (UO-31 renal): 1200 nM | TGI (UO-31 renal): 15500 nM | GI50 (RXF 393 renal): 288 nM | TGI (RXF 393 renal): 953 nM | GI50 (MDA-MB-231 breast): 1110 nM | TGI (MDA-MB-231 breast): 15700 nM | GI50 (SF-539 CNS): 235 nM | TGI (SF-539 CNS): 821 nM | GI50 (SNB-75 CNS): 243 nM | TGI (SNB-75 CNS): 12700 nM | GI50 (RPMI-8226 leukemia): 392 nM | TGI (RPMI-8226 leukemia): 12300 nM | GI50 (IGROV1 ovarian): 850 nM | TGI (IGROV1 ovarian): 17800 nM | GI50 (HL-60(TB) leukemia): 329 nM | TGI (HL-60(TB) leukemia): 961 nM | GI50 (NCI-H522 lung): 214 nM | TGI (NCI-H522 lung): 620 nM | GI50 (UACC-62 melanoma): 406 nM | TGI (UACC-62 melanoma): 14200 nM | GI50 (HOP-62 NSCLC): 465 nM | TGI (HOP-62 NSCLC): 18900 nM | GI50 (SK-OV-3 ovarian): 586 nM | TGI (SK-OV-3 ovarian): 17100 nM | GI50 (MALME-3M melanoma): 515 nM | TGI (MALME-3M melanoma): 18700 nM | GI50 (OVCAR-3 ovarian): 339 nM | TGI (OVCAR-3 ovarian): 14100 nM | GI50 (NCI-H460 lung): 370 nM | TGI (NCI-H460 lung): 11500 nM | GI50 (NCI/ADR-RES ovarian): 323 nM | TGI (NCI/ADR-RES ovarian): 10200 nM | GI50 (U251 CNS): 342 nM | TGI (U251 CNS): 2970 nM | GI50 (SK-MEL-5 melanoma): 475 nM | TGI (SK-MEL-5 melanoma): 3450 nM | GI50 (BT-549 breast): 526 nM | TGI (BT-549 breast): 5480 nM | GI50 (LOX IMVI melanoma): 427 nM | TGI (LOX IMVI melanoma): 13700 nM | GI50 (ACHN renal): 1100 nM | TGI (ACHN renal): 12500 nM | GI50 (MCF7 breast): 324 nM | TGI (MCF7 breast): 12200 nM | GI50 (HS 578T breast): 423 nM | TGI (HS 578T breast): 29200 nM | GI50 (HCT-116 colon): 442 nM | TGI (HCT-116 colon): 11400 nM | GI50 (MOLT-4 leukemia): 418 nM | TGI (MOLT-4 leukemia): 12100 nM | GI50 (UACC-257 melanoma): 12100 nM | TGI (UACC-257 melanoma): 27000 nM | GI50 (HT29 colon): 341 nM | TGI (HT29 colon): 1790 nM | GI50 (SF-295 CNS): 271 nM | TGI (SF-295 CNS): 1950 nM | GI50 (SK-MEL-28 melanoma): 3810 nM | TGI (SK-MEL-28 melanoma): 20300 nM | GI50 (OVCAR-8 ovarian): 780 nM | TGI (OVCAR-8 ovarian): 44600 nM | GI50 (NCI-H226 lung): 949 nM | TGI (NCI-H226 lung): 18900 nM
